2 molecules from publication PMC9304199, “A small molecule CFTR potentiator restores ATP‐dependent channel gating to the cystic fibrosis mutant G551D‐CFTR” (British Journal of Pharmacology, 2022) can be followed below.

Assay [1] has as its target G551D‐CFTR (Homo sapiens, UniProt P13569, G551D). Kind of assay: Automated planar patch-clamp whole-cell Cl− currents in HEK cells. The format is cell-based. Also on record: expressed in transfected cells. The note with it: for EC50: G551D‐CFTR HEK cells, whole-cell currents, automated electrophysiology, 23°C, read-out: EC50 (μM) (95% CI); for Emax: HEK293, read-out: Maximal effect (%) (95% CI). How it is done: For CFTR studies using automated electrophysiology and single-channel recording, we used baby hamster kidney (BHK) cells (RRID:CVCL_1915) and human embryonic kidney (HEK) 293 cells (RRID:CVCL_0045) stably expressing wild-type human CFTR and the CFTR variants F508del- and […] et al., [2002]; Xu et al., [2014]). […] HEK cells expressing CFTR variants were generated using the Flp-InTM system as described above for F508del- and G551D-CFTR-expressing FRT cells. They were cultured in Dulbecco's modified Eagle's medium (glucose, 1.5 g·L^-1; sodium pyruvate, 110 mg·L^-1) supplemented with 10% FBS (PAA Laboratories), GlutaMAXTM and hygromycin-B (150 μg·ml^-1; InvitrogenTM, Thermo Fisher Scientific) at 37°C in a humidified atmosphere with 5% CO2. Prior to study, F508del-CFTR expressed in HEK cells was trafficked to the plasma membrane by low temperature incubation (27°C for 24-72 h). The single-channel behaviour of human CFTR in excised membrane patches from different mammalian cell lines heterologously expressing CFTR is equivalent (wild-type CFTR, Chen et al., [2009]; F508del-CFTR, Bose et al., [2019]; and G551D-CFTR, J Liu, Y Wang, Z Cai, and DN Sheppard, unpublished observations). […] The continuous lines are the fit of sigmoidal concentration-response functions to mean data. […] (Figure S2D: Normality Test (Shapiro-Wilk), P = 0.124 (passed); Equal Variance Test (Brown-Forsythe), P = 0.092 (passed)). Click here for additional data file.
On the technique in general: In patch-clamp work, channel activity is measured electrically.

Assay [2] deals with T1, wild‐type CFTR (Homo sapiens, UniProt P13569).
T1 construct: expressed in transfected cells
Kind of assay: Single-channel recording in excised inside-out membrane patches, wild-type CFTR. The format is biochemical. The note with it: ATP 0.3 mM; for maximum Po (Po max) / EC50: PKA 75 nM, ~23°C; for EC50: read-out: EC50 for potentiation of Po. How it is done:
For CFTR studies using automated electrophysiology and single-channel recording, we used baby hamster kidney (BHK) cells (RRID:CVCL_1915) and human embryonic kidney (HEK) 293 cells (RRID:CVCL_0045) stably expressing wild-type human CFTR and the CFTR variants F508del- and […] et al., [2002]; Xu et al., [2014]). […] HEK cells expressing CFTR variants were generated using the Flp-InTM system as described above for F508del- and G551D-CFTR-expressing FRT cells. They were cultured in Dulbecco's modified Eagle's medium (glucose, 1.5 g·L^-1; sodium pyruvate, 110 mg·L^-1) supplemented with 10% FBS (PAA Laboratories), GlutaMAXTM and hygromycin-B (150 μg·ml^-1; InvitrogenTM, Thermo Fisher Scientific) at 37°C in a humidified atmosphere with 5% CO2. Prior to study, F508del-CFTR expressed in HEK cells was trafficked to the plasma membrane by low temperature incubation (27°C for 24-72 h). The single-channel behaviour of human CFTR in excised membrane patches from different mammalian cell lines heterologously expressing CFTR is equivalent (wild-type CFTR, Chen et al., [2009]; F508del-CFTR, Bose et al., [2019]; and G551D-CFTR, J Liu, Y Wang, Z Cai, and DN Sheppard, unpublished observations). CFTR Cl^- channels were recorded in excised inside-out membrane patches using an Axopatch 200B patch-clamp amplifier and pCLAMP software (version 10.3) (RRID:SCR_011323) (both from Molecular Devices, San Jose, CA, USA) (Sheppard & Robinson, [1997]). […] Within 2 min after membrane patch excision, we added the catalytic subunit of protein kinase A (PKA; 75 nM) and ATP (1 mM) to the intracellular solution to activate CFTR Cl^- channels. To minimise channel rundown, we added PKA and millimolar concentrations of ATP to all intracellular solutions and clamped voltage at -50 mV. […] We reduced the ATP concentration when testing CFTR potentiators on wild-type CFTR to observe their effects more clearly. […] Instead, specific interventions with CFTR potentiators were compared with the pre-intervention control period made with the same concentration of ATP and PKA, but without test compounds. […] F508del-CFTR, n ≤ 4; G551D-CFTR, n ≤ 5). To determine channel number, we used the maximum number of simultaneous channel openings observed during an experiment (Cai et al., [2006]). To minimise errors, we used experimental conditions that robustly potentiate channel activity and verified that recordings were of sufficient length to ascertain the correct number of channels ([…] et al., [1994]). […] Despite our precautions, we cannot exclude the possibility of unobserved G551D-CFTR Cl^- channels in excised membrane patches causing Po values for G551D-CFTR to be […]. Therefore, Po values for G551D-CFTR are expressed as apparent Po (Po(app)) values. Single-channel currents were directly acquired to a computer hard disc after filtering at a corner frequency (f c) of 500 Hz with an eight-pole Bessel filter (model LHBF-48×; npi electronic GmbH, Tamm, Germany) and digitising at a sampling rate of 5 kHz using a Digidata 1440A interface (Molecular Devices) and pCLAMP software. […] The mean interburst interval (TIBI) was calculated using the equation (Cai et al., [2006]): (1) Po=Tb/TMBD+TIBI, where T b = (mean burst duration) × (open probability within a burst). Mean burst duration (T MBD) and open probability within a burst (Po[burst]) were determined directly from experimental data using pCLAMP software. […]

T1 sequence (P13569 whole entry): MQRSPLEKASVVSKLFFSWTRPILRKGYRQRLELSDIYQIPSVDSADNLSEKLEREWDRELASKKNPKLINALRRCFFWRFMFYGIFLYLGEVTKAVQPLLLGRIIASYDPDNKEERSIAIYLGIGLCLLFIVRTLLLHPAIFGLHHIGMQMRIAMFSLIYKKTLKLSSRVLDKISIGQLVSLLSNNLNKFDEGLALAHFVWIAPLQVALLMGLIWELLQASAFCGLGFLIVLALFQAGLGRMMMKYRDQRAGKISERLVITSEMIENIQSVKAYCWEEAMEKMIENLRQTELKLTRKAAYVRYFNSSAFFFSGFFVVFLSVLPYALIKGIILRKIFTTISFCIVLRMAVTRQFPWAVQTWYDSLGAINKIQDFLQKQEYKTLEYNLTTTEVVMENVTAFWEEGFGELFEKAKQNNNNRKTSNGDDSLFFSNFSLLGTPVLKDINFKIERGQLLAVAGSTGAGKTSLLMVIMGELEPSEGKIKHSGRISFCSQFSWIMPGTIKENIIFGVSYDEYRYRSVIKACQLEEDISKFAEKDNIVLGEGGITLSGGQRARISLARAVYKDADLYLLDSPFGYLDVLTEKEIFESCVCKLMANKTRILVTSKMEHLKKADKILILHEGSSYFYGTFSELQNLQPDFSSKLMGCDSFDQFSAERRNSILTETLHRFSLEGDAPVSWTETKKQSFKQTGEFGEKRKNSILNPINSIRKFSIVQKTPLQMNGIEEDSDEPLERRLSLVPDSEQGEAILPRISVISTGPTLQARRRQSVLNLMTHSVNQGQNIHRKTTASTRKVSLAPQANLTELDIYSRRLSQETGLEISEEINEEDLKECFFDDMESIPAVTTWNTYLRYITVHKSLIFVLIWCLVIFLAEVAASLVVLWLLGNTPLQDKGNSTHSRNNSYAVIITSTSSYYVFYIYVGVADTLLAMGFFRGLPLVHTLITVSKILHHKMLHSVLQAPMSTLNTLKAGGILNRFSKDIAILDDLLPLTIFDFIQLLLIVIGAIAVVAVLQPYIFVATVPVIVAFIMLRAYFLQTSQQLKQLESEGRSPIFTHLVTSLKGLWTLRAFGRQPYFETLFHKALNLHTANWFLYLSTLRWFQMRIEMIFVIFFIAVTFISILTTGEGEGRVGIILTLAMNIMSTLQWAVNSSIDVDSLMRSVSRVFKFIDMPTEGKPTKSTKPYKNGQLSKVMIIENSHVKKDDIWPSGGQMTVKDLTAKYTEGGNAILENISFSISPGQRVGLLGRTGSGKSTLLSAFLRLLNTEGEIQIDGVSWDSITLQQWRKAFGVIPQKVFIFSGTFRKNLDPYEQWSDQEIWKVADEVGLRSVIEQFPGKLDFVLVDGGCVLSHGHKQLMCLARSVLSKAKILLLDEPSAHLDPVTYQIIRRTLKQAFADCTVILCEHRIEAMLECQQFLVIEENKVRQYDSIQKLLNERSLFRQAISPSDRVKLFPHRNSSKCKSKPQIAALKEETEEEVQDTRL
Sequence of G551D‐CFTR (P13569 whole entry G551D): as the sequence (P13569 whole entry) above, with G551D counted along it

`Cc1ncccc1CNC(=O)c1ccc2c(c1)CC[C@H]1C[C@](O)(CCC(F)(F)F)CC[C@]21Cc1ccccc1` (racemic) [CP‐628006, rac‐(4bR,7R,8aS)‐4b‐benzyl‐7‐hydroxy‐N‐((2‐methylpyridin‐3‐yl)methyl)‐7‐(3,3,3‐trifluoropropyl)‐4b,5,6,7,8,8a,9,10‐octahydrophenanthrene‐2‐carboxamide]: in assay [1], the EC50 (as a rule, the concentration at which the effect is half-maximal) is 5.13 µM and the Emax was 72%. Moreover, in assay [2], the “maximum Po (Po max)” value is listed as 0.77 and the EC50 was 24 nM.

Consider `CC(C)(C)c1cc(C(C)(C)C)c(NC(=O)c2c[nH]c3ccccc3c2=O)cc1O` [ivacaftor, reference compound], for which, in assay [1], the EC50 came to 0.82 µM and the Emax worked out at 70%. Further, in assay [2], the “greater potency than CP‐628006” value came to 100 fold, the “maximum Po (Po max)” value is 0.71 and the 50% effective concentration (EC50) was determined as 0.21 nM.
